Assay [1] relates to hPPARα, hPPARγ, hPPARδ. Nature of the assay: Gal4-hPPAR α/γ/δ transactivation: isoform selectivity and dose dependence. Conditions: 10 μM. The format is cell-based, human. How it is done:
(§1) The PPAR activation was evaluated in vitro on a monkey kidney fibroblast line (COS-7) by measuring the transcriptional activity of chimeras constituted of the DNA binding domain of the Gal4 transcription factor of yeast and of the binding domain to the ligand of the different PPARs. The compounds were tested at doses between 0.01 and 100 μM on Gal4-PPARα, γ, δ chimeras. The induction factor (ratio between the luminescence induced by the compound and the luminescence induced by the control) was measured for each condition: the higher this factor, the more the compound has PPAR-activating properties.
(§2) The Gal4(RE)_TkpGL3, pGal4-hPPARα, pGal4-hPPARγ, pGal4-hPPARδ and pGal4-φ plasmids have been described in the literature (Raspe, Madsen et al. 1999). The pGal4-hPPARα, pGal4-hPPARγ and pGal4-hPPARδ constructs were obtained by cloning in the pGal4-φ vector of fragments of DNA amplified by PCR corresponding to the DEF domains of the human PPARα, PPARγ PPARδ nuclear receptors.
(§3) COS-7 cells were plated in 96 wells plates (5×10^4 cells/well) and transfected, in the presence of 10% foetal calf serum and 150 ng DNA per well, with a pGal4-PPAR/Gal4(RE)_TkpGL3 ratio of 1/10. The cells were then incubated for 24 hours with the compounds to be tested, without serum. At the end of the experiment, the cells were lysed and the luciferase activities were determined by means of Steady Glow Luciferase (Promega) according to the supplier's recommendations.
The inventive compounds were tested at doses between 0.01 and 100 μM on the 3 PPAR isoforms. The results obtained are detailed in FIGURES (1a), (1b) and (1c): evolution of the transactivation levels according to the dose for the three PPAR sub-types (α, γ, and δ respectively).

Assay [2] addresses T1, hPPARδ (Homo sapiens, UniProt Q03181).
T1 construct: fragments of DNA amplified by PCR corresponding to the DEF domains of the human PPARα, PPARγ PPARδ nuclear receptors; expressed in transfected cells; host or cells: COS-7 (monkey kidney fibroblast line)
T1 sequence (Q03181 211-439 limits assumed): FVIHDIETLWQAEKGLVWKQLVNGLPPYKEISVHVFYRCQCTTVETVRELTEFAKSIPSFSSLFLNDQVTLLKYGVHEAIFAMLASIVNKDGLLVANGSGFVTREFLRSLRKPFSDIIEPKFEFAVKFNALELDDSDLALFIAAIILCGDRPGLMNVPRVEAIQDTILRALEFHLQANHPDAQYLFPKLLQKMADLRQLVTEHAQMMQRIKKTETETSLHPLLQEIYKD
Nature of the assay: Gal4-hPPARδ chimera transactivation in COS-7 cells (luciferase). The assay is classed as cell-based. Conditions: induction factor standardised to an internal reference, read-out: % hGal4-PPAR transactivation (10 μM) delta. The procedure: as §1
(§4) The COS-7 cells from ATCC were cultivated in a DMEM medium supplemented with 10% (vol/vol) of foetal calf serum, 100 U/ml penicillin (Gibco, Paisley, UK) and 2 mM L-Glutamine (Gibco, Paisley, UK). The cells were incubated at 37° C. in a humid atmosphere containing 5% CO2.
as §2, §3
(§5) The inventive compounds were tested at 10 μM on the 3 PPAR isoforms. The results obtained are detailed in table (1). The transactivation measured is expressed as a response ratio versus an internal reference for each of the isoforms.
(§6) The compounds were tested at 10 μM on the Gal4-PPARα, γ, δ chimeras. The induction factor, i.e. the ratio between the luminescence induced by the compound and the luminescence induced by the control, was measured for each condition. It was then standardised in comparison to an internal reference and the results were then expressed in percentages : the higher the activation percentage, the more the compound has PPAR-activating properties.

For assay [3], the target named is T2, hPPARα (Homo sapiens, UniProt Q07869).
T2 construct: fragments of DNA amplified by PCR corresponding to the DEF domains of the human PPARα, PPARγ PPARδ nuclear receptors; expressed in transfected cells; host or cells: COS-7 (monkey kidney fibroblast line)
T2 sequence (Q07869 239-466 limits assumed): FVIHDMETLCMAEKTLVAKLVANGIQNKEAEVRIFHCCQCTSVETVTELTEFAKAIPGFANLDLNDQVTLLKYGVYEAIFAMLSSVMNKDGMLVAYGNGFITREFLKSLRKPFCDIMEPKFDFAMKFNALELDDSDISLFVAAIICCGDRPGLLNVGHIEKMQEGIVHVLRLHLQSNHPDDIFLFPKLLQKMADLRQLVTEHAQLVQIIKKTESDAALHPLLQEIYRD
The assay is described as follows: Gal4-hPPARα chimera transactivation in COS-7 cells (luciferase). Conditions: induction factor standardised to an internal reference, read-out: % hGal4-PPAR transactivation (10 μM) alpha. The format is cell-based. The procedure: as §1, §4, §2, §3, §5, §6

Assay [4] addresses T3, ATP-dependent potassium channels (K+ATP) (Rattus norvegicus, UniProt Q09429).
T3 construct: the potassium channels derive from a rat's cerebral cortex; tissue CEREP; host or cells: rat cerebral cortex
Nature of the assay: [3H]glibenclamide binding to ATP-dependent potassium channels of rat cerebral cortex. The following applies: 1 h; 300 nM; specific displacement of [3H]glibenclamide 0.1 nM; read-out: KATP binding (300 nM). How it is done:
The results shown reflect the specific affinity of the inventive compounds on the ATP-dependent (K^+ATP) potassium channels. The specific binding measured corresponds to the difference between the total binding and the non-specific binding determined in the presence of an excess of non-marked reference ligand (glibenclamide 1 μM). The inventive compounds were tested at doses between 3 and 300 nM: the higher the percentage measured, the stronger the affinity of the compound for the ATP-dependent potassium channels.
The binding test was carried out at CEREP (Celle L'Evescault, France (86)) according to a protocol inspired by Angel et al. (Angel and Bidet 1991): the potassium channels derive from a rat's cerebral cortex and the reference compound is [^3H]glibenclamide at 0.1 nM. The protocol consists of incubation at 22° C. for one hour.

Assay [5] has as its target T4, hPPARγ (Homo sapiens, UniProt P37231).
T4 construct: fragments of DNA amplified by PCR corresponding to the DEF domains of the human PPARα, PPARγ PPARδ nuclear receptors; expressed in transfected cells; host or cells: COS-7 (monkey kidney fibroblast line)
T4 sequence (P37231 238-503 limits assumed): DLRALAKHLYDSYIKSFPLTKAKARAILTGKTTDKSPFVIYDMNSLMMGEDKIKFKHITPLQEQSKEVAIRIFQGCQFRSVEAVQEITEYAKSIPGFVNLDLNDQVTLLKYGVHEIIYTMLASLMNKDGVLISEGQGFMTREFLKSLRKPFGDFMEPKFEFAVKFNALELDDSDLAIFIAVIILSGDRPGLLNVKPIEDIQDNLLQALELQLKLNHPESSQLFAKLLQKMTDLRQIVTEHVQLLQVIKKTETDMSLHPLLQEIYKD
Nature of the assay: Gal4-hPPARγ chimera transactivation in COS-7 cells (luciferase). The assay is classed as cell-based. The following applies: induction factor standardised to an internal reference, read-out: % hGal4-PPAR transactivation (10 μM) gamma. How it is done:
as §1, §4, §2, §3, §5, §6

T3 sequence (Q09429 whole entry): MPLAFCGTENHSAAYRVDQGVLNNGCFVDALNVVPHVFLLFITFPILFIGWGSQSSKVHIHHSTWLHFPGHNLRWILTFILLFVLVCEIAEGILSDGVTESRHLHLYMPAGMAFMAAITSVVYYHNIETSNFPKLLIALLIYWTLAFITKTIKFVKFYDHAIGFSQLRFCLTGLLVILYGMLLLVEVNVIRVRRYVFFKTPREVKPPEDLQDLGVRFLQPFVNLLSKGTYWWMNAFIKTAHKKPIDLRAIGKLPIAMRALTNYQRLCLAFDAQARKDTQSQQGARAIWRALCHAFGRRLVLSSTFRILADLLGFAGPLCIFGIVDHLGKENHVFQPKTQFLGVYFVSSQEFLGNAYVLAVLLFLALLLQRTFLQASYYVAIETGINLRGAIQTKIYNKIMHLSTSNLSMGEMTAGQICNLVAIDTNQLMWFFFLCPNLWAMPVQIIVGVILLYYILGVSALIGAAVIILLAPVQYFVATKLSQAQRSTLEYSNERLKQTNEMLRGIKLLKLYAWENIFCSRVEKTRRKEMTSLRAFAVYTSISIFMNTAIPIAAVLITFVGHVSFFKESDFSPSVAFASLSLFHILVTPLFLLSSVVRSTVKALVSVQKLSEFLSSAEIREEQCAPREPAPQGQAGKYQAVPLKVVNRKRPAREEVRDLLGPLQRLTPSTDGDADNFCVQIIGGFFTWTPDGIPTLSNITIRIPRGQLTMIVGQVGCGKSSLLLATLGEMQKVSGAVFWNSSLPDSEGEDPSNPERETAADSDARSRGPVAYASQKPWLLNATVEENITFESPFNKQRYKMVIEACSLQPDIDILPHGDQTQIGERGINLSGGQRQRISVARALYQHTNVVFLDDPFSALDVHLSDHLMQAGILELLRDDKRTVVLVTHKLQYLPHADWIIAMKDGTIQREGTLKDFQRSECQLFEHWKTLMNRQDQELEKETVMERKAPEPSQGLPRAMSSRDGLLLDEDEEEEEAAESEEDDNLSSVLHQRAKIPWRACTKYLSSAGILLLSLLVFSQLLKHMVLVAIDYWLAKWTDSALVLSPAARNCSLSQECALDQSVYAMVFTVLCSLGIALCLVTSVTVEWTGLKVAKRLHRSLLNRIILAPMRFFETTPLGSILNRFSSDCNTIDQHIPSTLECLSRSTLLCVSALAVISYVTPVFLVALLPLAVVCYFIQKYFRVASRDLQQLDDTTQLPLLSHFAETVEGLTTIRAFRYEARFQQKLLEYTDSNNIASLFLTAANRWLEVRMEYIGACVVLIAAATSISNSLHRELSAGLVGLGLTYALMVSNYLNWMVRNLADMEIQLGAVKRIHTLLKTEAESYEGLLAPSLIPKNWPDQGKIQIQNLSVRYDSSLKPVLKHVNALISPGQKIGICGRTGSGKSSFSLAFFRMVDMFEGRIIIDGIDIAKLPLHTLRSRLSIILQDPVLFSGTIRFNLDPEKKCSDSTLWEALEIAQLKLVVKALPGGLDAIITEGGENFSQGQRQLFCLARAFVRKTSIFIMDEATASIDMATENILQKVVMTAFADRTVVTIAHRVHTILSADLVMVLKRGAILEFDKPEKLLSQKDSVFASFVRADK
T3 sequence (P70673 whole entry partner): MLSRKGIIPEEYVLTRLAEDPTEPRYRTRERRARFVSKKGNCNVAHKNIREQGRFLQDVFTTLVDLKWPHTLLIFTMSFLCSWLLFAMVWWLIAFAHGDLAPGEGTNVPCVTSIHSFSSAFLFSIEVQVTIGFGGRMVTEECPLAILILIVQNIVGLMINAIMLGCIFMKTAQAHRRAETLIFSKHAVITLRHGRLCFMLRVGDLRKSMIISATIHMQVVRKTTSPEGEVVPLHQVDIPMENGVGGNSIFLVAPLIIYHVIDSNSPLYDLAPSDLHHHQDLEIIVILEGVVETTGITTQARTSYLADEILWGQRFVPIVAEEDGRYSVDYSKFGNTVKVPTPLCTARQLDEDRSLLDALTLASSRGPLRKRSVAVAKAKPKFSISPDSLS

Regarding `CCCCC(NC(=O)Cc1ccc(OC(C)(C)C(=O)O)cc1)c1ccccc1Sc1ccccc1` (centres unmarked) [Compound 36, 2-[4-[1-(1-(2-(phenylthio)phenyl)pentyl)aminocarbonylmethyl]phenoxy]-2-methylpropanoic acid], in assay [1], the “selectivity with respect to PPAR isoforms” value (from here on “selectivity”) was “activates hPPARα and hPPARγ, but not hPPARδ”. Moreover, the activation at 10 µM was under 10% in assay [2], 54% in assay [3] and 73% in assay [5]. Also, the inhibition at 0.3 µM in assay [4] amounted to 45%.

For `CCCCC(NC(=O)Cc1ccc(OC(C)(C)C(=O)NS(=O)(=O)C(F)(F)F)cc1)c1ccccc1N1CCCCC1` (centres unmarked) [Compound 60, N-[trifluoromethylsulfonyl]-2-[4-[1-(1-(2-(1-piperidinyl)phenyl)pentyl)aminocarbonylmethyl]phenoxy]-2-methylpropanamide], the “selectivity” value in assay [1] was “hPPARα selective”. Also, the activation at 10 µM in assay [2] is under 10%; in assay [3], 46%; in assay [5] it was under 10%. Moreover, the inhibition at 0.3 µM in assay [4] was determined as 49%.

In the case of `CC(C)(Oc1ccc(CC(=O)NC(CC2CCCCC2)c2ccccc2N2CCCCC2)cc1)C(=O)O` (centres unmarked) [Compound 19, 2-[4-[1-(2-cyclohexyl-1-(2-(1-piperidinyl)phenyl)ethyl)aminocarbonylmethyl]phenoxy]-2-methylpropanoic acid], the “selectivity” value in assay [1] is reported as “activates neither hPPARα nor hPPARδ”. The figures for the activation at 10 µM in assay [2], in assay [3] and in assay [5] were under 10%, under 10% and 95%, respectively.

As to `CCCCC(NC(=O)Cc1ccc(OC(C)(C)C(=O)O)cc1)c1ccc(-n2cccc2)cc1N1CCCCC1` (centres unmarked) [Compound 49, 2-[4-[1-(1-(2-(1-piperidinyl)-4-(1H-pyrrolyl)phenyl)pentyl)aminocarbonylmethyl]phenoxy]-2-methylpropanoic acid], in assay [1], the “selectivity” value was “activates hPPARγ and hPPARδ, but not hPPARα”. Besides, the activation at 10 µM is 57% in assay [2], under 10% in assay [3] and 87% in assay [5].

`CC(C)CC(NC(=O)Cc1ccc(OC(C)(C)C(=O)O)cc1)c1ccc(-c2ccccc2)cc1N1CCCCC1` (centres unmarked) [Compound 39, 2-[4-[1-(3-methyl-1-(2-(1-piperidinyl)-4-(phenyl)phenyl)butyl)aminocarbonylmethyl]phenoxy]-2-methylpropanoic acid]: in assay [1], the “selectivity” value is “ligand of hPPARα, hPPARγ and hPPARδ”. For the same compound, the activation at 10 µM in assay [2] stood at 24%; in assay [3], 16%; in assay [5], 29%.

`CC(C)(Oc1ccc(CC(=O)NC(Cc2ccccc2)c2ccccc2N2CCCCC2)cc1)C(=O)O` (centres unmarked) [Compound 7, 2-[4-[1-(2-phenyl-1-(2-(1-piperidinyl)phenyl)ethyl)aminocarbonylmethyl]phenoxy]-2-methylpropanoic acid]: the activation at 10 µM in assay [2] is under 10%; in assay [3], 40%; in assay [5], 34%. Besides, in assay [4], the inhibition at 0.3 µM was 71%.

With `CC(C)CC(NC(=O)Cc1ccc(OC(C)(C)C(=O)NS(=O)(=O)C(F)(F)F)cc1)c1ccccc1N1CCCCC1` (centres unmarked) [Compound 59, N-[trifluoromethylsulfonyl]-2-[4-[1-(3-methyl-1-(2-(1-piperidinyl)phenyl)butyl)aminocarbonylmethyl]phenoxy]-2-methylpropanamide], the activation at 10 µM is under 10% in assay [2], 22% in assay [3] and under 10% in assay [5]. For the same compound, the inhibition at 0.3 µM in assay [4] turned out to be 73%.

For `CC(C)CC(NC(=O)Cc1ccc(OC(C)(C)C(=O)NS(=O)(=O)c2ccccc2)cc1)c1ccccc1N1CCCCC1` (centres unmarked) [Compound 64, N-[phenylsulfonyl]-2-[4-[1-(3-methyl-1-(2-(1-piperidinyl)phenyl)butyl)aminocarbonylmethyl]phenoxy]-2-methylpropanamide], the activation at 10 µM in assay [2] is under 10%; in assay [3], under 10%; in assay [5], 18%. In addition, the inhibition at 0.3 µM in assay [4] came out at 57%.

As to `CC(C)CC(C(=O)NCc1ccc(OC(C)(C)C(=O)O)cc1)c1ccccc1N1CCCCC1` (centres unmarked) [Compound 32, 2-[4-[1-(3-methyl-1-(2-(1-piperidinyl)phenyl)butyl)carbonylaminomethyl]phenoxy]-2-methylpropanoic acid], the activation at 10 µM is under 10% in assay [2], under 10% in assay [3] and 25% in assay [5]. Also, the inhibition at 0.3 µM in assay [4] stood at 93%.

(Values after US20060079696A1, “Substituted compounds derived from N-(benzyl)phenylacetamide, preparation and uses” (GENFIT, priority 2004, published 2006).)
